According to PubChem BioAssay (NCI):
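Grown in 96-well plates, cells were treated for 48 hours with each compound at five concentrations. Insufficient inhibition: endpoint recorded as highest concentration tested. GI50 = concentration required for 50% inhibition of growth. TGI marks complete inhibition of growth.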

What was measured:
Experiment in all cases: NCI tumour cell line growth inhibition, 48 h
[1] = tested on: MALME-3M melanoma
[2] = tested on: OVCAR-5 ovarian
[3] = tested on: EKVX NSCLC
[4] = tested on: HL-60(TB) leukemia
[5] = tested on: NCI-H460 lung
[6] = tested on: T-47D breast
[7] = tested on: RPMI-8226 leukemia
[8] = tested on: LOX IMVI melanoma
[9] = tested on: SN12C renal
[10] = tested on: SK-OV-3 ovarian
[11] = tested on: MCF7 breast
[12] = tested on: RXF 393 renal
[13] = tested on: SNB-75 CNS
[14] = tested on: KM12 colon
[15] = tested on: OVCAR-8 ovarian
[16] = tested on: A549 NSCLC
[17] = tested on: DU-145 prostate
[18] = tested on: HS 578T breast
[19] = tested on: HCT-116 colon
[20] = tested on: CCRF-CEM leukemia
[21] = tested on: TK-10 renal
[22] = tested on: OVCAR-4 ovarian
[23] = tested on: 786-0 renal
[24] = tested on: K-562 leukemia
[25] = tested on: COLO 205 colon
[26] = tested on: HT29 colon
[27] = tested on: M14 melanoma
[28] = tested on: UACC-257 melanoma
[29] = tested on: NCI-H522 lung
[30] = tested on: MDA-MB-231 breast
[31] = tested on: UACC-62 melanoma
[32] = tested on: A498 renal
[33] = tested on: NCI-H226 lung
[34] = tested on: NCI-H23 lung
[35] = tested on: SK-MEL-28 melanoma
[36] = tested on: OVCAR-3 ovarian
[37] = tested on: HOP-62 NSCLC
[38] = tested on: NCI/ADR-RES ovarian
[39] = tested on: HOP-92 NSCLC
[40] = tested on: U251 CNS
[41] = tested on: SNB-19 CNS
[42] = tested on: MDA-MB-435
[43] = tested on: MOLT-4 leukemia
[44] = tested on: HCT-15 colon
[45] = tested on: PC-3 prostate
[46] = tested on: UO-31 renal
[47] = tested on: SF-295 CNS
[48] = tested on: SK-MEL-2 melanoma
[49] = tested on: ACHN renal
[50] = tested on: BT-549 breast
[51] = tested on: HCC-2998 colon
[52] = tested on: SF-539 CNS
[53] = tested on: SF-268 CNS
[54] = tested on: CAKI-1 renal
[55] = tested on: IGROV1 ovarian
[56] = tested on: MDA-N
[57] = tested on: SK-MEL-5 melanoma
[58] = tested on: SW-620 colon
[59] = tested on: SR leukemia

For `O=C1c2cccnc2-c2nc(/C=C/c3ccccc3)cc3c2c1nc1ccccc13`, the GI50 [1] was 5.01 µM, the TGI [1] was 20.5 µM and the GI50 [2] was 11.8 µM. The TGI [2] was 25.4 µM, the GI50 [3] was 2.82 µM and the TGI [3] was 14 µM. For the same molecule, the GI50 [4] was 1.79 µM, the TGI [4] was 7.97 µM and the GI50 [5] was 0.354 µM. The TGI [5] was 1.27 µM, the GI50 [6] was 6.16 µM and the TGI [6] was over 78.7 µM. For the same molecule, the GI50 [7] was 1.2 µM, the TGI [7] was 5.12 µM and the GI50 [8] was 2.76 µM. The TGI [8] was 6.92 µM, the GI50 [9] was 2.77 µM and the TGI [9] was 9.01 µM. It also gave a GI50 [10] of 7.1 µM, a TGI [10] of 17 µM and a GI50 [11] of 0.899 µM. The TGI [11] was 5.01 µM, the GI50 [12] was 14.8 µM and the TGI [12] was 37.1 µM. It also gave a GI50 [13] of 2 µM, a TGI [13] of 8.06 µM and a GI50 [14] of 1.78 µM. For the same molecule, the TGI [14] was 5.04 µM, the GI50 [15] was 3.8 µM and the TGI [15] was over 30 µM. For the same molecule, the GI50 [16] was 2.2 µM, the TGI [16] was 4.34 µM and the GI50 [17] was 1.76 µM. The TGI [17] was 3.58 µM, the GI50 [18] was 3.74 µM and the TGI [18] was 18 µM. For the same molecule, the GI50 [19] was 1.95 µM, the TGI [19] was 6.14 µM and the GI50 [20] was 3.06 µM. It also gave a TGI [20] of over 100 µM, a GI50 [21] of 19.1 µM and a TGI [21] of 43.2 µM. The GI50 [22] was 3.77 µM, the TGI [22] was 10.5 µM and the GI50 [23] was 2.26 µM. The TGI [23] was 6.48 µM, the GI50 [24] was 1.43 µM and the TGI [24] was 9.1 µM. The GI50 [25] was 3.74 µM, the TGI [25] was 16.7 µM and the GI50 [26] was 1.87 µM. It also gave a TGI [26] of 3.97 µM, a GI50 [27] of 1.73 µM and a TGI [27] of 3.58 µM. For the same molecule, the GI50 [28] was 2.35 µM, the TGI [28] was 6.3 µM and the GI50 [29] was 1.76 µM. The TGI [29] was 3.47 µM, the GI50 [30] was 6.95 µM and the TGI [30] was over 80.8 µM. For the same molecule, the GI50 [31] was 1.72 µM, the TGI [31] was 3.28 µM and the GI50 [32] was 3.88 µM. The TGI [32] was 10.5 µM, the GI50 [33] was 10.1 µM and the TGI [33] was 28 µM. It also gave a GI50 [34] of 1.6 µM, a TGI [34] of 3.58 µM and a GI50 [35] of 2.3 µM. For the same molecule, the TGI [35] was 4.18 µM, the GI50 [36] was 1.9 µM and the TGI [36] was 4.69 µM. For the same molecule, the GI50 [37] was 2.78 µM, the TGI [37] was 11.8 µM and the GI50 [38] was 6.35 µM. The TGI [38] was 42.1 µM, the GI50 [39] was 17.4 µM and the TGI [39] was over 100 µM. It also gave a GI50 [40] of 2.9 µM, a TGI [40] of 11.1 µM and a GI50 [41] of 2.51 µM. For the same molecule, the TGI [41] was 6.13 µM, the GI50 [42] was 1.86 µM and the TGI [42] was 3.37 µM. For the same molecule, the GI50 [43] was 1.57 µM, the TGI [43] was 10.8 µM and the GI50 [44] was 0.844 µM. The TGI [44] was 2.1 µM, the GI50 [45] was 1.97 µM and the TGI [45] was 13.6 µM. The GI50 [46] was 2.01 µM, the TGI [46] was 6.5 µM and the GI50 [47] was 2.31 µM. For the same molecule, the TGI [47] was 5.27 µM, the GI50 [48] was 2.14 µM and the TGI [48] was 4.99 µM. It also gave a GI50 [49] of 1.94 µM, a TGI [49] of 5.54 µM and a GI50 [50] of 6.38 µM. It also gave a TGI [50] of 17.3 µM, a GI50 [51] of 1.81 µM and a TGI [51] of 3.2 µM. It also gave a GI50 [52] of 3.02 µM, a TGI [52] of 7.77 µM and a GI50 [53] of 2.24 µM. For the same molecule, the TGI [53] was over 21.2 µM, the GI50 [54] was 3.05 µM and the TGI [54] was 10.3 µM. The GI50 [55] was 1.59 µM, the TGI [55] was 4.44 µM and the GI50 [56] was 2.04 µM. It also gave a TGI [56] of 4.15 µM.
`CC(C)(C)NC(NC(C)(C)C)=C(C(Cl)=C(Cl)Cl)[N+](=O)[O-]` showed a TGI [1] of over 100 µM, a TGI [2] of over 100 µM and a TGI [3] of over 100 µM. The TGI [4] was over 100 µM, the TGI [5] was over 100 µM and the TGI [6] was over 100 µM. For the same molecule, the TGI [7] was over 100 µM, the TGI [8] was over 100 µM and the TGI [9] was over 100 µM. It also gave a TGI [10] of over 100 µM, a TGI [11] of over 100 µM and a TGI [12] of over 100 µM. The TGI [13] was over 100 µM, the TGI [14] was over 100 µM and the TGI [15] was over 100 µM. The TGI [16] was over 100 µM, the TGI [17] was over 100 µM and the TGI [18] was over 100 µM. It also gave a TGI [19] of over 100 µM, a TGI [20] of over 100 µM and a TGI [21] of over 100 µM. For the same molecule, the TGI [22] was over 100 µM, the TGI [23] was over 100 µM and the TGI [24] was over 100 µM. It also gave a TGI [25] of over 100 µM, a TGI [26] of over 100 µM and a TGI [27] of over 100 µM. For the same molecule, the TGI [28] was over 100 µM, the TGI [30] was over 100 µM and the TGI [31] was over 100 µM. The TGI [32] was over 100 µM, the TGI [33] was over 100 µM and the TGI [34] was over 100 µM. It also gave a TGI [35] of over 100 µM, a TGI [36] of over 100 µM and a TGI [37] of over 100 µM. The TGI [38] was over 100 µM, the TGI [40] was over 100 µM and the TGI [41] was over 100 µM. The TGI [43] was over 100 µM, the TGI [44] was over 100 µM and the TGI [57] was over 100 µM. The TGI [58] was over 100 µM, the TGI [45] was over 100 µM and the TGI [46] was over 100 µM. It also gave a TGI [47] of over 100 µM, a TGI [49] of over 100 µM and a TGI [59] of over 100 µM. The TGI [50] was over 100 µM, the TGI [51] was over 100 µM and the TGI [52] was over 100 µM. It also gave a TGI [53] of over 100 µM, a TGI [54] of over 100 µM and a TGI [55] of over 100 µM. The TGI [56] was over 100 µM.
